One data set addresses mPDE11A4 (Mus musculus, UniProt P0C1Q2). In words: Reversal of aging-like punctate accumulations of EmGFP-mPDE11A4 in HT-22 hippocampal cells. It counts as cell-based. As to conditions: HT-22 cells overexpressing EmGFP-mPDE11A4. On the procedure: In vivo, expression of PDE11A4 increases in the hippocampus across the lifespan in humans and rodents, resulting in age-related punctate accumulations of PDE11A4 protein in “ghost axons.” These age-related PDE11A4 accumulations were mimicked by overexpressing mouse PDE11A4 in mouse HT-22 hippocampal cells. FIGS. 31A-31B is an image of HT-22 cells overexpressing EmGFP-mPDE11A4 treated with the vehicle DMSO (FIG. 30A) or 1 uM 25b (FIG. 30B).
See FIGS. 35A and 35B, which show images of HT-22 cells overexpressing EmGFP-mPDE11A4 treated with the vehicle DMSO (35A) or 1 uM 25b (35B).

A further data set has as its target T1, PDE11A4 (Homo sapiens, UniProt Q9HCR9).
T1 construct: purchased BPS Bioscience
Nature of the data set: In vitro PDE11A4 enzyme inhibition assay (Ba(OH)2 precipitation method). It is filed as biochemical. To be noted: for pIC50: in vitro. On the procedure: In vitro enzyme assays are conducted via the Ba(OH)2 precipitation method of Wang et al. using commercially-available recombinant PDEs representing all 11 PDE families. Assays for PDE11A inhibition are carried out with both 200 nM cAMP and 100 nM cGMP. Substrate concentrations for the remaining PDEs are 100 nM cGMP (PDE1C), 1 μM cGMP (PDE2A), 30 nM cGMP (PDE3B), 120 nM cAMP (PDE4D), 500 nM cGMP (PDE5A), […] (PDE6C), 15 nM cAMP (PDE7A), 10 nM cAMP (PDE8A), 70 nM cGMP (PDE9A), and 30 nM cAMP (PDE10A).
These compounds were profiled further using additional commercially available analogs and by in vitro ADME characteristics. The synthesis of these analogs is illustrated in the schemes of FIGS. 24-26. […] In the rightmost column of FIG. 27B, percent (%) values refer to percent inhibition, and non-percent values refer to IC50 values.
In vitro enzyme assays were conducted via the Ba(OH)2 precipitation method of Wang et al. using recombinant human PDE3A, PDE4D3, PDE5A, PDE6C, PDE10A1, and PDE11A4 (BPS Bioscience)). Substrate concentrations used were 15 nM cGMP (PDE3A), 18 nM cAMP (PDE3A) 200 nM cAMP (PDE4D3), 500 nM cGMP (PDE5A), 1.7 μM cGMP (PDE6C), 30 nM cAMP (PDE10A), […] (PDE10A), 100 nM cGMP (PDE11A4) and 240 nM cAMP (PDE11A4). […] Inhibitor concentrations of 4, 13.7, 40, 123, 370, 1110, 3330 and 10,000 nM were used. The values reported are means of at least three independent experiments. Substrate concentrations were ~0.1×KM for each enzyme; thus, IC50 values approximate the Ki values.

Data set [1] in a line: Kinetic aqueous solubility, pH 7.4. It counts as physicochemical. To be noted: aqueous buffer, PBS, Example 4 Table 1. On the procedure:
The mixture is agitated at 25° C. for 1 hour, filtered and evaluated by UV and/or LCMSMS analysis. Data are reported as mg/mL and μM concentration.

Data set [2] in a line: Metabolic stability in mouse liver microsomes. It is filed as in vitro ADME. On the procedure: (§1) Metabolic stability: Samples at 37° C. in the presence of human or mouse liver microsomes and NADPH according to standard methods. Aliquots are removed at 5 time points, quenched and analyzed (LCMS/MS and MS/MS as needed) for remaining test compound, along with a positive control. Microsomal protein content is adjusted to give consistent results. Data are reported as half-life and clearance. Assay acceptance criteria is 20% for all standards and 25% for the LLOQ.
For orientation: Liver microsomes are a subcellular fraction often used to study metabolism.

A short description of data set [3]: Metabolic stability in human liver microsomes. It is filed as in vitro ADME. On the procedure: as §1
Another data set deals with CYP3A4 (Homo sapiens, UniProt P08684). Nature of the data set: CYP3A4 inhibition (testosterone substrate). To be noted: Example 4 Table 1. It counts as in vitro ADME. Here is the method: (§2) CYP inhibition: Compounds are assessed for their ability to inhibit the three major human cytochrome P450 enzymes, 3A4, 2D6 and 2C9. Expressed enzymes are used to minimize non-specific binding and membrane partitioning issues. The 3A4 assay uses testosterone as a substrate and is analyzed by LC/MS/MS on a Waters TQ instrument using positive or negative electrospray ionization. The 2D6 and 2C9 assays use fluorescent substrates and are analyzed on an Envision Plate Reader.

Another data set deals with CYP2D6 (Homo sapiens, UniProt P10635). Nature of the data set: CYP2D6 inhibition (fluorescent substrate). To be noted: Example 4 Table 1. It is filed as in vitro ADME. On the procedure:
as §2

The next data set has as its target CYP2C9 (Homo sapiens, UniProt P11712). Nature of the data set: CYP2C9 inhibition (fluorescent substrate). As to conditions: Example 4 Table 1. It counts as in vitro ADME. Here is the method: as §2
Another data set relates to MDCK cell monolayers. Nature of the data set: MDCK / MDCK-MDR1 permeability and efflux. It counts as in vitro ADME. To be noted: Example 4 Table 1. Here is the method: MDCK permeability: MDCK cell monolayers (Absorption Systems, Malvern, PA) are grown to confluence on collagen-coated microporous membranes in 12-well assay plates. Assay buffer consists of Hanks' balanced salt solution containing 10 mM HEPES and 15 mM glucose at pH—7.4. The buffer in the receiver chamber also contains 1% bovine serum albumin. Compounds are tested at a final concentration of 5 μM in the assay buffer. Cell monolayers are dosed on the apical side (A-B) or basolateral side (B-A) and incubated at 37° C. with 5% CO2 in a humidified incubator. Samples are taken from the donor and receiver chambers at 120 minutes. Each determination is performed in duplicate. The flux of Lucifer yellow is also measured post-experimentally for each monolayer to ensure no damage is inflicted to the monolayer during flux period. Samples are assayed on a Waters TQ LC/MS/MS using positive or negative electrospray ionization.

SMILES strings stand for the structures. pIC50: −log10 of the molar value. Values after ≈ are worked out from the molar mass of the structure shown.

The text below walks through data of patent publication US20260347351A1, “INHIBITORS OF PDE11A4 AND METHODS OF USING SAME” (UNIVERSITY OF MARYLAND, BALTIMORE, priority 2022, published 2026).

T1 sequence (Q9HCR9 whole entry): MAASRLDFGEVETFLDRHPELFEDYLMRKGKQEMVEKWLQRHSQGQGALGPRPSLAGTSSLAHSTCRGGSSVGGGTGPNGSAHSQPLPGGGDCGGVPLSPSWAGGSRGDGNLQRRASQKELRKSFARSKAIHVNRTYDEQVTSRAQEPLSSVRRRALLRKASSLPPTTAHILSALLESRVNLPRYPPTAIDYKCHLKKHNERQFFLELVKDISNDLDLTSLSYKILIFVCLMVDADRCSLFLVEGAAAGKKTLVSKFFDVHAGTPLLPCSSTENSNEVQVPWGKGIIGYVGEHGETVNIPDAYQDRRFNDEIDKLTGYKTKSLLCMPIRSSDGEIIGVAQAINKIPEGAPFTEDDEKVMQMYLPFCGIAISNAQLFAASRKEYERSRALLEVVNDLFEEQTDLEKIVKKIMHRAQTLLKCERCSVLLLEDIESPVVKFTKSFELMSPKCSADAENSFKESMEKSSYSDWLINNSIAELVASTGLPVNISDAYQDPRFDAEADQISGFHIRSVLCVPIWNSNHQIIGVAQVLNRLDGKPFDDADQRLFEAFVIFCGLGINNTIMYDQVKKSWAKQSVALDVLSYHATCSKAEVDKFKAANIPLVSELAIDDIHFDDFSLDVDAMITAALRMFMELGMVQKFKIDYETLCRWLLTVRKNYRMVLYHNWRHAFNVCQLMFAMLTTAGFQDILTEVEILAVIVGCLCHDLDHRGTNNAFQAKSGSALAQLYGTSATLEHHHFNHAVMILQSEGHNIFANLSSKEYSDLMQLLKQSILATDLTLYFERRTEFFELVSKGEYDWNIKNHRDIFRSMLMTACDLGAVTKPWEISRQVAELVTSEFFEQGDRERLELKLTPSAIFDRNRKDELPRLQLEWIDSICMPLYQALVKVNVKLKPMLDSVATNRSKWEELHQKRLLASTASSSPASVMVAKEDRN
Chain of mPDE11A4 (P0C1Q2 whole entry): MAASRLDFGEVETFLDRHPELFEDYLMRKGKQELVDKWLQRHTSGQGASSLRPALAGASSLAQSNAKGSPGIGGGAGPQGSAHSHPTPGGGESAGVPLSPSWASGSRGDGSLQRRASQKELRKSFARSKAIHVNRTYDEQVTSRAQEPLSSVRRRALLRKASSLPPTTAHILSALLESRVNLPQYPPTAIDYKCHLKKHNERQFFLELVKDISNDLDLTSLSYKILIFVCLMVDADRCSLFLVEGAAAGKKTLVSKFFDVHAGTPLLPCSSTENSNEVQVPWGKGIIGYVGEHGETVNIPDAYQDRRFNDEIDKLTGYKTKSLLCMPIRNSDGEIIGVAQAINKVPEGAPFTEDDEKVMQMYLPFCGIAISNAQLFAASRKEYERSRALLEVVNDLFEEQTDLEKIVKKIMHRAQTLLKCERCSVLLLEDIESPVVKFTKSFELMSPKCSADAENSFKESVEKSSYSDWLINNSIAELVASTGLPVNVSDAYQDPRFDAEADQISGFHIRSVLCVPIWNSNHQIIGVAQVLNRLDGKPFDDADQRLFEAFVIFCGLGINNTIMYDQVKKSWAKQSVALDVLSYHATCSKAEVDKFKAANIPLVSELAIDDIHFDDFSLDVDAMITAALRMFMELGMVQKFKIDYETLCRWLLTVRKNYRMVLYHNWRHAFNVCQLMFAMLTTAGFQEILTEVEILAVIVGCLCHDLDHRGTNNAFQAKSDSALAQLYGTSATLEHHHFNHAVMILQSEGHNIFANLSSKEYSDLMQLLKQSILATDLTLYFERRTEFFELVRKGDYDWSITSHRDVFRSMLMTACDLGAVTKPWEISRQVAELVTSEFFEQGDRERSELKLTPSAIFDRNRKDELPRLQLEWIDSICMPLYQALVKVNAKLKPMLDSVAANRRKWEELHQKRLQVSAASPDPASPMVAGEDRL
Chain of CYP2C9 (P11712 whole entry): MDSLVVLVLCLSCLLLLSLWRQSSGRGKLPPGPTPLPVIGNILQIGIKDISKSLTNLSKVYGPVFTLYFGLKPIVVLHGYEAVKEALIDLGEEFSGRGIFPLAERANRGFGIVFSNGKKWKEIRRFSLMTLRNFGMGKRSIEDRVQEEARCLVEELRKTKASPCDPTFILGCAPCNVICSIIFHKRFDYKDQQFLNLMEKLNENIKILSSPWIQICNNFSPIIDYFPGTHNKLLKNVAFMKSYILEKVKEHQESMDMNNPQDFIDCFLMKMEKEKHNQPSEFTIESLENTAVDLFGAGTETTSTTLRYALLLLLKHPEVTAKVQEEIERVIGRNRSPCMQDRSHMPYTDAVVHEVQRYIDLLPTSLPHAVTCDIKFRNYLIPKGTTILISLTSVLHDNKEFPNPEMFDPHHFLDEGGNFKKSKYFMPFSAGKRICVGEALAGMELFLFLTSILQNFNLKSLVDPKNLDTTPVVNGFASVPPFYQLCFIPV
Chain of CYP3A4 (P08684 whole entry): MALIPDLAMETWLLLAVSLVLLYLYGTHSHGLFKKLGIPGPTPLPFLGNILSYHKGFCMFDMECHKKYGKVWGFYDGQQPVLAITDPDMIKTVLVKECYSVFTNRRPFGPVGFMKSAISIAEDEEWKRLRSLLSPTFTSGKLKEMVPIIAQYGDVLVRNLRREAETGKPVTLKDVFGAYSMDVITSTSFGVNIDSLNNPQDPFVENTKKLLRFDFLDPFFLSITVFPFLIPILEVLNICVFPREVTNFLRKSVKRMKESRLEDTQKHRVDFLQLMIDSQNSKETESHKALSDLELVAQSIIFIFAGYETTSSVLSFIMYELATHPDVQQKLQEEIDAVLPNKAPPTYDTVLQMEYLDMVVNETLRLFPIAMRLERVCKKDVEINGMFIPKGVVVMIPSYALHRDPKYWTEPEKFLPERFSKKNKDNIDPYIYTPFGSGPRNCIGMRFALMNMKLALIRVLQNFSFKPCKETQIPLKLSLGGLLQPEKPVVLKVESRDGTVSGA
Chain of CYP2D6 (P10635 whole entry): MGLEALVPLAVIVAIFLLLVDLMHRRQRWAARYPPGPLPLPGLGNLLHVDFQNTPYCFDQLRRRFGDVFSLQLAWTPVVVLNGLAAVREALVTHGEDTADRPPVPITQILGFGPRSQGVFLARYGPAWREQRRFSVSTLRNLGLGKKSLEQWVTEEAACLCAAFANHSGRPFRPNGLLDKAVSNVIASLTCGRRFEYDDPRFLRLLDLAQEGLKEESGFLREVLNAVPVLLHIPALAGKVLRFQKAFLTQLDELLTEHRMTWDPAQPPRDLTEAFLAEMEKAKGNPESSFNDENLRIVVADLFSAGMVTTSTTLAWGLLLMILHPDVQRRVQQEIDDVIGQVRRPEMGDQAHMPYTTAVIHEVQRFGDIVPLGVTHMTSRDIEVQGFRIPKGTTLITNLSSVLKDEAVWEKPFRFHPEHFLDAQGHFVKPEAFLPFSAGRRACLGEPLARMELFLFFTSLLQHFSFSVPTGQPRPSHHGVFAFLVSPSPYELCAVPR

For `CCCSc1nc2c(c(=O)n1-c1ccccc1)SCC2` [BC11-38], the “reversal of aging-like accumulations of mPDE11A4” value on mPDE11A4 is given as “able to reverse these aging-like accumulations of mPDE11A4”.
Consider `CCn1nccc1-c1cc(-c2ncc(C)s2)c2cnn(-c3ccccc3)c2n1` [Compound 1001], for which the inhibition (usually the change of the read-out against control, counted positive when it falls) at 0.5 µM at PDE11A4 (@500 nM) worked out at 62%.
In the case of `CCn1nccc1-c1cc(-c2ncc(C)o2)c2cnn(-c3ccccc3)c2n1` [Compound 1003], the pIC50 (commonly the IC50 on a negative log10 scale, so that one unit is a factor of ten) on PDE11A4 is 6.85.
As for `CCn1nccc1-c1cc(-c2nnc(C)s2)c2cnn(-c3ccccc3)c2n1` [Compound 1005], the pIC50 against PDE11A4 was 6.77. The pIC50 values of the last two compounds are within 0.2 log units of each other.
As for `CCn1nccc1-c1cc(-c2nnc(C)o2)c2cnn(-c3ccccc3)c2n1` [Compound 1007], on PDE11A4, the negative-log IC50 (pIC50) is 7.15. This pIC50 is 0.38 log units higher than that of the compound before.
Regarding `CCN(CC)C(=O)c1cc(-c2cccs2)nc2c1c(C)nn2-c1ccccc1` [Compound 3001], the solubility (commonly the dissolved amount per volume that the medium holds) in data set [1] amounted to 54 µM (≈ 21.1 µg/mL). The microsomal CLint in data set [2] (Example 4 Table 1, read-out: Mouse Liver Microsome Clint) was above 690 µL/min/mg; in [3] (Example 4 Table 1, read-out: Human Liver Microsome Clint) it was above 690 µL/min/mg. Moreover, the half-life was below 2 min in [2] (Example 4 Table 1, read-out: Mouse Liver Microsome Stability t½) and below 2 min in data set [3] (Example 4 Table 1, read-out: Human Liver Microsome Stability t½). Further, the pIC50 against CYP3A4 was 5.52; at CYP2D6, below 5.00; against CYP2C9, 5.31. Further, the “MDCK1 A:B” value in the data set with MDCK cell monolayers was 0.78.
For the compound `CN1CC(=O)N2[C@H](c3ccc4c(c3)OCO4)c3[nH]c4ccccc4c3C[C@@H]2C1=O` [Tadalafil, tadalafil], on mPDE11A4, the “reversal of aging-like accumulations of mPDE11A4” value is given as “able to reverse these aging-like accumulations of mPDE11A4”.
